This note sets out measurements from US20170298055A1, “sGC STIMULATORS” (IRONWOOD PHARMACEUTICALS, INC., priority 2014, published 2017).

The target of the assay is T1, human recombinant soluble guanylate cyclase enzyme α1β1 (Homo sapiens, UniProt Q02108+Q02153).
T1 construct: purchased Enzo Life Sciences ALX-201-177
T1 sequence (Q02153 1-619): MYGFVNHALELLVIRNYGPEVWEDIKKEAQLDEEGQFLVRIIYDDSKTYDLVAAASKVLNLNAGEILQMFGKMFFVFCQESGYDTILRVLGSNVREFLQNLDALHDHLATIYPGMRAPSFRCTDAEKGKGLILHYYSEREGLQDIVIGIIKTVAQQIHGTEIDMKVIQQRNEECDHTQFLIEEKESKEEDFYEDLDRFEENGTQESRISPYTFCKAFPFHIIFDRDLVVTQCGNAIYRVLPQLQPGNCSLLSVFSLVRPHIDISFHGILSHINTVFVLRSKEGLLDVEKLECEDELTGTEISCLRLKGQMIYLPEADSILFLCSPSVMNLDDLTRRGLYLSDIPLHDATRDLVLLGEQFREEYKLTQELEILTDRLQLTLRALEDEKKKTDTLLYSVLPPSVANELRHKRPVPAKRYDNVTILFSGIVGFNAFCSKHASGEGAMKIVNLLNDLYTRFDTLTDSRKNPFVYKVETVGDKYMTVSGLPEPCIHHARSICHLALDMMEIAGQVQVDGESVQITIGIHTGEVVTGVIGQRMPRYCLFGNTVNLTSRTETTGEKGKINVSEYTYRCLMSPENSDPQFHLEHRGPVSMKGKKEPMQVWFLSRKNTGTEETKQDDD
T1 sequence (Q02108 1-690): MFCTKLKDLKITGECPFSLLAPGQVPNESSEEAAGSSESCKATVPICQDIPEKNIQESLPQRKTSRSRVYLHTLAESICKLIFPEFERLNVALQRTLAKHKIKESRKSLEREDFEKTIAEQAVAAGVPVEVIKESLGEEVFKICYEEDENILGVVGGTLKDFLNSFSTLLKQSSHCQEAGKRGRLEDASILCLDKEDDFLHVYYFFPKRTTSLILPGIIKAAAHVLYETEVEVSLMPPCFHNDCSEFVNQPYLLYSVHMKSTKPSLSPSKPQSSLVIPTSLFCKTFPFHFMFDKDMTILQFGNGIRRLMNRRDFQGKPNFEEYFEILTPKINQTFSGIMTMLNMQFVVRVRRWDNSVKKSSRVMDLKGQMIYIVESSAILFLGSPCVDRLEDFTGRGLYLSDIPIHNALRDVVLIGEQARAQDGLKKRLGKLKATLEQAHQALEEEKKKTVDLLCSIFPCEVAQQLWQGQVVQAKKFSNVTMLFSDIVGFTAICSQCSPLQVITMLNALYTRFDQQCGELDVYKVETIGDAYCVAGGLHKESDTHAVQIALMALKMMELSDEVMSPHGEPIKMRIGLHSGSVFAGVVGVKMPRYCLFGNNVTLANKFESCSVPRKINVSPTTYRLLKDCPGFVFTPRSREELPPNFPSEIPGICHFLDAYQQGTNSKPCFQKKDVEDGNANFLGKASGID
As to the kind of experiment: Purified human recombinant sGC α1β1 enzyme assay with DETA-NONOate, cGMP HTRF (Example 5). In kind it is biochemical. The note with it: 30 uM DETA NONOate, 50% of maximal response of 30 uM Compound Y, read-out: sGC_Enz_HTRF_a1b1 EC50/IC50 Abs (Norm) (nM) Binned. The method, then:
Purified human recombinant soluble guanylate cyclase enzyme α1β1 (h sGC) obtained from Enzo Life Sciences (P/N: ALX-201-177) was used to evaluate the activity of test compounds. The assay reactions contained 0.1 M Tris (pH 8.0), 0.5 mg/mL BSA, 2 mM DTT, 4 mM MgCl2, 30 uM DETA NONOate (Enzo Life Science P/N: ALX-430-014), and 12.5 ng/ml human soluble guanylate cyclase enzyme. […] Guanosine 5′-triphosphate (Sigma-Aldrich P/N: G8877) was added to a final concentration of 300 μM and enzyme reactions were incubated (100 μL, 384-well plate format) at 37° C. for 20 minutes. The controls contained 3% DMSO (low control), or 30 uM of Compound Y (high control). After the 20 minute incubation, the reaction was stopped with the addition of 100 μL of ice cold 20% acetic acid.
cGMP concentrations in all samples were determined using the cGMP HTRF (Cisbio P/N: 62GM2PEC) assay per manufacturer's instructions. A cGMP standard curve was fit using a 4-parameter fit (log(inhibitor) vs. response variable slope) using GraphPad Prism Software v.6. Samples were diluted appropriately to ensure that values fell within the linear range of the standard curve.
Data were fit using a 4-parameter fit (log(agonist) vs. response variable slope) using GraphPad Prism Software v.6.

Consider `CN(C)CCOc1nc(-c2cc(-c3ccon3)n(Cc3ccccc3F)n2)ncc1F` [Compound I-2], for which the EC50 was 1000 to 5000 nM.

As to `OCCOc1nc(-c2cc(-c3ccon3)n(Cc3ccccc3F)n2)ncc1F` [Compound I-1], the EC50 is 1000 to 5000 nM.
